Test results as given in patent US20240279214A1, “ALPHA4 BETA7 INEGRIN ANTAGONISTS AND USES THEREOF” (XinThera, Inc., priority 2022, published 2024).
Like-named read-outs stand apart in the source and are kept apart here.

Conditions: 13-membered ring

Compound `CCOC(=O)C[C@@H]1NC(=O)C(n2cc(CCN3CC(F)C3)c(C(F)(F)F)cc2=O)c2cccc(c2)Oc2cccc(Cl)c2-c2cc1c(F)c(C(F)(F)F)c2` (stereo partly shown) has a ring closure, isolated yield (from CCOC(=O)C[C@H](NC(=O)C(c1cccc(Br)c1)n1cc(CCN2CC(F)C2)c(C(F)(F)F)cc1=O)c1cc(-c2c(O)cccc2Cl)cc(C(F)(F)F)c1F, ether bond, CuI/N1,N2-dimethylcyclohexane-1,2-diamine/K2CO3, dioxane, 15.3 mM, 100.0 °C, 16.0 h) of 55.1%.

For `CCOC(=O)C[C@@H]1NC(=O)C(n2cc(CCN3CC(F)C3)c(C(F)(F)F)cc2=O)c2cc(ccc2F)Oc2cccc(Cl)c2-c2cc(C)c(F)c1c2` (stereo in doubt), the ring closure, isolated yield (from CCOC(=O)C[C@H](NC(=O)C(c1cc(Br)ccc1F)n1cc(CCN2CC(F)C2)c(C(F)(F)F)cc1=O)c1cc(-c2c(O)cccc2Cl)cc(C)c1F, ether bond, CuI/(1R,2R)-N1,N2-dimethylcyclohexane-1,2-diamine, 1,4-dioxane, 70.0 mM, 100.0 °C, 16.0 h) was 49.7%.

Compound “ethyl 2-[(14S,17S)-20-cyclopropyl-12,19-difluoro-3-methyl-15-oxo-14-[2-oxo-4-(trifluoromethyl) pyridin-1-yl]-8-oxa-16-azatetracyclo [16.3.1.1^{9,13}.0^{2,7}]tricosa-1(22),2(7),3,5,9,11,13(23),18,20-nonaen-17-yl]acetate” has a ring closure, isolated yield (ether bond, CuI/K2CO3/(1R,2R)-N1,N2-dimethylcyclohexane-1,2-diamine, 1,4-dioxane, 33.3 mM, 100.0 °C) of 56.2%.

With `CCOC(=O)C[C@@H]1NC(=O)C(n2cc(CCOC)c(C(F)(F)F)cc2=O)c2cc(ccc2F)Oc2cccc(C)c2-c2cc(C)c(F)c1c2` (stereo partly shown) the ring closure, isolated yield (from CCOC(=O)C[C@H](NC(=O)C(c1cc(Br)ccc1F)n1cc(CCOC)c(C(F)(F)F)cc1=O)c1cc(-c2c(C)cccc2O)cc(C)c1F, ether bond, CuI/K2CO3/(1R,2S)-N1,N2-dimethylcyclohexane-1,2-diamine, dioxane, 65.0 mM, 100.0 °C) was 27.9%.

With `CCOC(=O)C[C@@H]1NC(=O)C(n2cc(CCN3CC(F)C3)c(C(F)(F)F)cc2=O)c2cc(ccc2F)Oc2cc(F)cc(C)c2-c2cc(C)c(F)c1c2` (stereo in doubt) the ring closure, isolated yield (from CCOC(=O)C[C@H](NC(=O)C(c1cc(Br)ccc1F)n1cc(CCN2CC(F)C2)c(C(F)(F)F)cc1=O)c1cc(-c2c(C)cc(F)cc2O)cc(C)c1F, ether bond, CuI/K2CO3/(1R,2R)-N1,N2-dimethylcyclohexane-1,2-diamine, dioxane, 30.0 mM, 100.0 °C, 16.0 h) was 48.2%.

For `CCOC(=O)C[C@@H]1NC(=O)C(n2ccc(C(F)(F)F)cc2=O)c2cc(ccc2F)Oc2cccc(C)c2-c2cc(C)c(F)c1c2` (stereo partly shown), the ring closure, isolated yield (from CCOC(=O)C[C@H](NC(=O)C(c1cc(Br)ccc1F)n1ccc(C(F)(F)F)cc1=O)c1cc(-c2c(C)cccc2O)cc(C)c1F, ether bond, CuI/(1R,2R)-N1,N2-dimethylcyclohexane-1,2-diamine/K2CO3, 1,4-dioxane, 40.0 mM, 100.0 °C, 16.0 h) was 88.7%.

With `CCOC(=O)C[C@H](NC(=O)C(c1cc(Br)cc(Cl)c1F)n1cc(CCN2CC(F)C2)c(C(F)(F)F)cc1=O)c1cc(-c2c(C)cccc2O)cc(C)c1F` (stereo partly shown) the ring closure, isolated yield (the molecule shown is the open-chain precursor, ether bond, CuI/(1R,2R)-N1,N2-dimethylcyclohexane-1,2-diamine/K2CO3, dioxane, 46.7 mM, 100.0 °C) was 46.1%.

Compound `CCOC(=O)C[C@@H]1NC(=O)C(n2cc3ccccc3cc2=O)c2cc(ccc2F)Oc2cccc(C)c2-c2cc(C)c(F)c1c2` (stereo partly shown) has a ring closure, isolated yield (from CCOC(=O)C[C@H](NC(=O)C(c1cc(Br)ccc1F)n1cc2ccccc2cc1=O)c1cc(-c2c(C)cccc2O)cc(C)c1F, ether bond, CuI/(1R,2R)-N,N'-dimethylcyclohexane-1,2-diamine/K2CO3, dioxane, 58.0 mM, 100.0 °C, 2.0 h) of 33.9%.

With `CCOC(=O)C[C@@H]1NC(=O)C(n2cc(CCN3CC(F)C3)c(C(F)(F)F)cc2=O)c2cc(ccc2F)Oc2cc(N3CC(OC)C3)cc(C)c2-c2cc(C)c(F)c1c2` (stereo partly shown) the ring closure, isolated yield (from CCOC(=O)C[C@H](NC(=O)C(c1cc(Br)ccc1F)n1cc(CCN2CC(F)C2)c(C(F)(F)F)cc1=O)c1cc(-c2c(C)cc(N3CC(OC)C3)cc2O)cc(C)c1F, ether bond, CuI/(1R,2R)-N1,N2-dimethylcyclohexane-1,2-diamine/K2CO3, 1,4-dioxane, 30.0 mM, 100.0 °C, 2.0 h) was 59.2%.

With `CCOC(=O)C[C@@H]1NC(=O)C(n2cc(CCN3CC(F)C3)c(C(F)(F)F)cc2=O)c2cc(ccc2F)Oc2cc(C(C)(C)O)cc(C)c2-c2cc(C)c(F)c1c2` (stereo partly shown) the ring closure, isolated yield (from CCOC(=O)C[C@H](NC(=O)C(c1cc(Br)ccc1F)n1cc(CCN2CC(F)C2)c(C(F)(F)F)cc1=O)c1cc(-c2c(C)cc(C(C)(C)O)cc2O)cc(C)c1F, ether bond, CuI/(1R,2R)-N1,N2-dimethylcyclohexane-1,2-diamine/K2CO3, 1,4-dioxane, 40.0 mM, 100.0 °C, 16.0 h) was 28.3%.

For `COC(=O)C[C@@H]1NC(=O)C(n2ccc(C(F)(F)F)cc2=O)c2cc(ccc2F)Oc2cccc(C)c2-n2cc1c(C(F)(F)F)n2` (stereo partly shown), the ring closure, isolated yield (from COC(=O)C[C@H](NC(=O)C(c1cc(Br)ccc1F)n1ccc(C(F)(F)F)cc1=O)c1cn(-c2c(C)cccc2O)nc1C(F)(F)F, ether bond, CuI/(1R,2R)-N,N'-dimethylcyclohexane-1,2-diamine/K2CO3, 1,4-dioxane, 65.0 mM, 100.0 °C, 2.0 h) was 22.5%.

`CCOC(=O)C[C@@H]1NC(=O)C(n2cc(CCN3CC(F)C3)c(C(F)(F)F)cc2=O)c2cc(ccc2F)Oc2cccc(C)c2-c2cc(C)c(F)c1c2F` (stereo partly shown) gave a ring closure, isolated yield (from CCOC(=O)C[C@H](NC(=O)C(c1cc(Br)ccc1F)n1cc(CCN2CC(F)C2)c(C(F)(F)F)cc1=O)c1c(F)c(C)cc(-c2c(C)cccc2O)c1F, ether bond, CuI/K2CO3/(1R,2R)-N1,N2-dimethylcyclohexane-1,2-diamine, 1,4-dioxane, 48.0 mM, 100.0 °C) of 72%.

`CCOC(=O)C[C@H](NC(=O)C(c1cc(Cl)cc(Br)c1)n1cc(CCN2CC(F)C2)c(C(F)(F)F)cc1=O)c1cc(-c2c(C)cccc2O)cc(C(F)(F)F)c1F` (stereo partly shown) showed a ring closure, isolated yield (the molecule shown is the open-chain precursor, ether bond, CuI/(1R,2R)-N1,N2-dimethylcyclohexane-1,2-diamine/K2CO3, dioxane, 19.0 mM, 100.0 °C) of 56%.

Work on `CCOC(=O)C[C@@H]1NC(=O)C(n2cc(CCN3CC(F)C3)c(C(F)(F)F)cc2=O)c2cc(ccc2F)Oc2nn(CC3CC3)cc2-c2cc(C)c(F)c1c2` (stereo partly shown) yielded a ring closure, isolated yield (from CCOC(=O)C[C@H](N)c1cc(-c2cn(CC3CC3)nc2Oc2ccc(F)c(C(C(=O)O)n3cc(CCN4CC(F)C4)c(C(F)(F)F)cc3=O)c2)cc(C)c1F, amide bond, EDCI/HOBt/DIEA, MeCN, 45.0 mM, 60.0 °C, 2.0 h) of 14.6%.

Work on `CCOC(=O)C[C@@H]1NC(=O)C(n2cc(CCN(C)C)c(C(F)(F)F)cc2=O)c2cccc(c2)Oc2cccc(C)c2-c2cc1c(F)c(C(F)(F)F)c2` (stereo in doubt) yielded a ring closure, isolated yield (from CCOC(=O)C[C@H](NC(=O)C(c1cccc(Br)c1)n1cc(CCN(C)C)c(C(F)(F)F)cc1=O)c1cc(-c2c(C)cccc2O)cc(C(F)(F)F)c1F, ether bond, CuI/(1R,2R)-N1,N2-dimethylcyclohexane-1,2-diamine/K2CO3, dioxane, 68.3 mM, 100.0 °C, 16.0 h) of 55.5%.

In the case of `CCOC(=O)C[C@@H]1NC(=O)C(n2c(=O)c3ccncc3n(C)c2=O)c2cc(ccc2F)Oc2cccc(C)c2-c2cc(C)c(F)c1c2` (stereo partly shown), the ring closure, isolated yield (from CCOC(=O)C[C@H](NC(=O)C(c1cc(Br)ccc1F)n1c(=O)c2ccncc2n(C)c1=O)c1cc(-c2c(C)cccc2O)cc(C)c1F, ether bond, CuI/K2CO3/(1R,2R)-N1,N2-dimethylcyclohexane-1,2-diamine, 1,4-dioxane, 50.0 mM, 100.0 °C, 2.0 h) is reported as 82.6%.

With `CCOC(=O)C[C@@H]1NC(=O)C(n2cc(CCN(C)C)c(C(F)(F)F)cc2=O)c2cc(ccc2F)Oc2cccc(C)c2-c2cc(C)c(F)c1c2` (stereo in doubt) the ring closure, isolated yield (from CCOC(=O)C[C@H](NC(=O)C(c1cc(Br)ccc1F)n1cc(CCN(C)C)c(C(F)(F)F)cc1=O)c1cc(-c2c(C)cccc2O)cc(C)c1F, ether bond, CuI/K2CO3/(1R,2R)-N1,N2-dimethylcyclohexane-1,2-diamine, 1,4-dioxane, 56.0 mM, 100.0 °C, 16.0 h) was 70%.

In the case of `CCOC(=O)C[C@@H]1NC(=O)C(n2cc(CCN3CC(F)C3)c(C(F)(F)F)cc2=O)c2cc(ccc2F)Oc2cc(C3COC3)cc(C)c2-c2cc(C)c(F)c1c2` (stereo partly shown), the ring closure, isolated yield (from CCOC(=O)C[C@H](NC(=O)C(c1cc(Br)ccc1F)n1cc(CCN2CC(F)C2)c(C(F)(F)F)cc1=O)c1cc(-c2c(C)cc(C3COC3)cc2O)cc(C)c1F, ether bond, CuI/(1R,2R)-N1,N2-dimethylcyclohexane-1,2-diamine/K2CO3, 1,4-dioxane, 25.0 mM, 100.0 °C, 1.0 h) is reported as 31.8%.

For `CCOC(=O)C[C@@H]1NC(=O)C(n2cc(CCN3CC(F)C3)c(C(F)(F)F)cc2=O)c2cc(ccc2F)Oc2cccc(C)c2-c2cc(C)c(F)c1c2` (stereo partly shown), the ring closure, isolated yield (from CCOC(=O)C[C@H](NC(=O)C(c1cc(Br)ccc1F)n1cc(CCN2CC(F)C2)c(C(F)(F)F)cc1=O)c1cc(-c2c(C)cccc2O)cc(C)c1F, ether bond, CuI/N1,N2-dimethylcyclohexane-1,2-diamine/K2CO3, dioxane, 18.7 mM, 100.0 °C, 16.0 h) was 72.5%.
